In brackets after ≈: the same amount, converted by molar mass. Where two headings read alike, the source gives them in different places.
Tests used:
[1] = system: C. neoformans; test: In vitro antifungal susceptibility testing; type: cell-based, Cryptococcus neoformans; conditions: for MIC: Cryptococcus neoformans, read-out: C. neoformans MIC; for C. neoformans MIC: Table 1, highest value of at least three biological replicates
[2] = system: C. albicans; test: In vitro antifungal susceptibility testing; type: cell-based; conditions: Candida albicans, SC5314, read-out: C. albicans MIC
[3] = system: calmodulin-dependent localization of Crz1; test: Crz1 nuclear translocation assay; type: cell-based, Cryptococcus neoformans; conditions: shift to 37°C
[4] = system: calmodulin-dependent localization of Crz1; conditions: assay validation; cited from earlier work
[5] = system: C. albicans; conditions: cited from earlier work

CN(C)CCCN1c2ccccc2Sc2ccccc21 [Promazine (2), Promazine] gave an MIC [1] of 64 µg/mL (≈ 225 µM).

For CN1CCN(CCCN2c3ccccc3Sc3ccc(C(F)(F)F)cc32)CC1 [Trifluoperazine, TFP (8), Trifluoperazine], the MIC [1] was 16 µg/mL (≈ 39.3 µM), the “C. neoformans MIC” value [1] was 16 µg/mL and the MIC [2] was greater than 32 µg/mL. The “Effect on Crz1 localization” value ([3]; higher concentrations than 2 μg/mL, Fig. 1B) was “reduce localization significantly”, the “Effect on Crz1 localization” value ([3]; sub-inhibitory concentration 2 μg/mL) was “fail to affect Crz1 localization” and the “Effect on nuclear localization of Crz1” value [4] was “reduce nuclear localization of Crz1”.

CN(C)CCCN1c2ccccc2Sc2ccc(Cl)cc21 [Chlorpromazine (3), Chlorpromazine] showed an MIC [1] of 25 µg/mL (≈ 78.4 µM).

In the case of CC/C(=C(\c1ccccc1)c1ccc(OCCN(C)C)cc1)c1ccccc1 [tamoxifen], the “Effect on nuclear localization of Crz1” value [4] is given as “reduce nuclear localization of Crz1”.

For CCN(CC)CCCCN1c2ccccc2Oc2ccc(Cl)cc21 [Compound 12], the “C. neoformans MIC” value [1] was 8 µg/mL.

For OC(Cn1cncn1)(Cn1cncn1)c1ccc(F)cc1F [FLU, Fluconazole], the “C. albicans MIC” value ([5]; strain SC5314) is listed as 0.25 µg/mL, the “C. albicans MIC” value ([5]; strain TWO7229) is listed as 0.25 µg/mL and the “C. albicans MIC” value ([5]; strain TWO7230) is listed as 2 µg/mL. The “C. albicans MIC” value ([5]; strain TWO7241) was 16 µg/mL and the “C. albicans MIC” value ([5]; strain TWO7243) was 128 µg/mL.

Work on CN1CCN(CCCN2c3ccccc3Sc3ccc(Cl)cc32)CC1 [Prochlorperazine (7), Prochlorperazine] yielded an MIC [1] of 64 µg/mL (≈ 171 µM).

For OCCN1CCN(CCCN2c3ccccc3Sc3ccc(C(F)(F)F)cc32)CC1 [Fluphenazine (10), Fluphenazine], the MIC [1] was 8 µg/mL (≈ 18.3 µM) and the “C. neoformans MIC” value [1] was 8 µg/mL.

With CSc1ccc2c(c1)N(CCC1CCCCN1C)c1ccccc1S2 (stereo not shown) [Thioridazine, THZ (1), Thioridazine] the MIC [1] was 16 µg/mL (≈ 43.2 µM) and the “C. neoformans MIC” value [1] was 16 µg/mL.

For C=CC[C@@H]1/C=C(\C)C[C@H](C)C[C@H](OC)[C@H]2O[C@@](O)(C(=O)C(=O)N3CCCC[C@H]3C(=O)O[C@H](/C(C)=C/[C@@H]3CC[C@@H](O)[C@H](OC)C3)[C@H](C)[C@@H](O)CC1=O)[C@H](C)C[C@@H]2OC [FK506], the “Effect on nuclear localization of Crz1” value [4] is listed as “reduce nuclear localization of Crz1”.

CN(C)CCCN1c2ccccc2Sc2ccc(C(F)(F)F)cc21 [Triflupromazine (4), Triflupromazine] gave an MIC [1] of 32 µg/mL (≈ 90.8 µM).

Reference: paper PMC8994671 (ACS infectious diseases, 2017)
